Like-named read-outs stand apart in the source and are kept apart here.
Key:
[1] = molecular target: HPK1 (SLP76 phosphorylation at Ser376 in Jurkat and EL-4 cells) (Homo sapiens, UniProt Q92918); format: cell-based
Outline: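 Jurkat (human) and EL-4 (mouse) cells, endogenous HPK1/SLP76, preincubated 60 min with compounds (10-point dilution), then stimulated with αCD3/αCD28 beads at 37 °C: 15 min for Jurkat, 30 min for EL-4. Ser376 pSLP76 in lysates read by AlphaLISA (Jurkat) or HTRF (EL-4); % inhibition and IC50 fitted.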

[2] = molecular target: full-length human HPK1 (MAP4K1) (Homo sapiens (Human), UniProt Q92918); experiment: HPK1 Kinase Assay (Biochemical Assay), ADP-Glo; conditions: GST-HPK1 3.2 nM, 10 μM ATP, MBP substrate, read-out: HPK1 enzymatic IC50
Chain of full-length human HPK1 (MAP4K1) (Q92918 whole entry): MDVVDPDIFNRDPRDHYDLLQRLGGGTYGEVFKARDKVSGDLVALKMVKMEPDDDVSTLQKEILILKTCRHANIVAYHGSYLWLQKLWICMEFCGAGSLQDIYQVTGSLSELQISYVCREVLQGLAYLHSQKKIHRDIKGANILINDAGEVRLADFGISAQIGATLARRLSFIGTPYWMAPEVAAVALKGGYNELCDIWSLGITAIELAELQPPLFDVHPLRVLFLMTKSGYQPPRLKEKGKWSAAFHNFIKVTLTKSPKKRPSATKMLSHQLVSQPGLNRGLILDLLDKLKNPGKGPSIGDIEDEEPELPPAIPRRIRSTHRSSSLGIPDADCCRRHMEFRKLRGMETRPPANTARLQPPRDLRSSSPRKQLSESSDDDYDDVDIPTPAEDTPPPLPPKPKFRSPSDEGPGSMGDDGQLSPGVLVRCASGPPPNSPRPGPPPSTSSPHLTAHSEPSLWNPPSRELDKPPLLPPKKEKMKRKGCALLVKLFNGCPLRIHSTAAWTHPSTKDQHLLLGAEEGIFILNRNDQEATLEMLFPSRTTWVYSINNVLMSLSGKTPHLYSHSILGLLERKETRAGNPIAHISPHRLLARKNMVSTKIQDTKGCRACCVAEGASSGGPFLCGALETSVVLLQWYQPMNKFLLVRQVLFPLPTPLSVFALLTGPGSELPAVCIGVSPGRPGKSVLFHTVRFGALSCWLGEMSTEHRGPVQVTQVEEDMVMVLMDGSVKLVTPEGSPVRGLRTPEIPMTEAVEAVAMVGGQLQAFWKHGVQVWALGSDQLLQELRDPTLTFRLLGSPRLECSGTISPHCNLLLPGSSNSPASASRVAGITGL
Outline: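 GST-tagged full-length human HPK1 was expressed in Sf21 cells and used at 3.2 nM in 50 mM HEPES pH 7.5, 10 mM MgCl2, 2 mM DTT, 12.5 mM O-glycerophosphate, 0.01% BSA and 0.02% Brij-35. It was preincubated 15 min with 10-point compound dilutions, and the reaction was started with a start mix of 10 μM ATP and 3.235 μM MBP. After 120 min, ADP was measured by ADP-Glo luminescence and IC50 derived.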

[3] = αCD3/αCD28 Dynabeads stimulated cells, pSLP76 (Ser376) detection; read-out: HPK1 pSLP76 IC50
[4] = read-out: HPK1 pSLP76 IC50; αCD3/αCD28 Dynabeads stimulated cells, pSLP76 (Ser376) detection

Chain of HPK1 (SLP76 phosphorylation at Ser376 in Jurkat and EL-4 cells) (Q92918 whole entry, looked up): as the sequence (Q92918 whole entry) above

Structure (SMILES)	IC50 [1, 3] [nM]	IC50 [2] [nM]	IC50 [1, 4] [nM]
Cc1c(N2CCc3cnc(Nc4ccc5c(c4)CNC5=O)nc3C2)cnc2c1NCCO2 [Example 85, 5-((7-(8-methyl-2,3-dihydro-1H-pyrido[2,3-b][1,4]oxazin-7-yl)-5,6,7,8-tetrahydropyrido[3,4-d]pyrimidin-2-yl)amino)isoindolin-1-one]	> 1000	< 100	–
CN1CCc2ncc(Nc3ncc4c(n3)CN(c3cnc5c(c3)NCCO5)CC4)cc2C1 [Example 87, 7-(2,3-dihydro-1H-pyrido[2,3-b][1,4]oxazin-7-yl)-N-(6-methyl-5,6,7,8-tetrahydro-1,6-naphthyridin-3-yl)-5,6,7,8-tetrahydropyrido[3,4-d]pyrimidin-2-amine]	> 1000	100 to 1000	–
Cc1c(N2CCc3cnc(Nc4ccc(OC[C@@H]5COCCO5)cc4)nc3C2)cnc2c1NCCO2 [Example 90, (S)—N-(4-((1,4-dioxan-2-yl)methoxy)phenyl)-7-(8-methyl-2,3-dihydro-1H-pyrido[2,3-b][1,4]oxazin-7-yl)-5,6,7,8-tetrahydropyrido[3,4-d]pyrimidin-2-amine]	500 to 1000	< 100	–
Cc1c(N2CCc3cnc(Nc4ccc(N5CCC(O)CC5)c(CC#N)c4)nc3C2)cnc2c1NCCO2 [Example 91, 2-(2-(4-hydroxypiperidin-1-yl)-5-((7-(8-methyl-2,3-dihydro-1H-pyrido[2,3-b][1,4]oxazin-7-yl)-5,6,7,8-tetrahydropyrido[3,4-d]pyrimidin-2-yl)amino)phenyl)acetonitrile]	< 500	< 100	–
Cc1c(N2CCc3cnc(Nc4ccc5c(c4)COC5)nc3C2)cnc2c1NCCO2 [Example 92, N-(1,3-dihydroisobenzofuran-5-yl)-7-(8-methyl-2,3-dihydro-1H-pyrido[2,3-b][1,4]oxazin-7-yl)-5,6,7,8-tetrahydropyrido[3,4-d]pyrimidin-2-amine]	500 to 1000	< 100	–
Cc1c(N2CCc3cnc(Nc4ccc5c(c4)C(C)(C)OC5)nc3C2)cnc2c1NCCO2 [Example 93, N-(3,3-dimethyl-1,3-dihydroisobenzofuran-5-yl)-7-(8-methyl-2,3-dihydro-1H-pyrido[2,3-b][1,4]oxazin-7-yl)-5,6,7,8-tetrahydropyrido[3,4-d]pyrimidin-2-amine]	–	< 100	< 500
Cc1c(N2CCc3cnc(Nc4ccc(OC5CCOCC5)cc4)nc3C2)cnc2c1NCCO2 [Example 94, 7-(8-methyl-2,3-dihydro-1H-pyrido[2,3-b][1,4]oxazin-7-yl)-N-(4-((tetrahydro-2H-pyran-4-yl)oxy)phenyl)-5,6,7,8-tetrahydropyrido[3,4-d]pyrimidin-2-amine]	–	< 100	500 to 1000
Cc1c(N2CCc3cnc(Nc4ccc5c(c4)CN(C)C5=O)nc3C2)cnc2c1NCCO2 [Example 96, 2-methyl-5-((7-(8-methyl-2,3-dihydro-1H-pyrido[2,3-b][1,4]oxazin-7-yl)-5,6,7,8-tetrahydropyrido[3,4-d]pyrimidin-2-yl)amino)isoindolin-1-one]	–	< 100	> 1000
Cc1c(N2CCc3cnc(Nc4ccc(OCCN5CCOCC5)cc4)nc3C2)cnc2c1NCCO2 [Example 97, 7-(8-methyl-2,3-dihydro-1H-pyrido[2,3-b][1,4]oxazin-7-yl)-N-(4-(2-morpholinoethoxy)phenyl)-5,6,7,8-tetrahydropyrido[3,4-d]pyrimidin-2-amine]	–	< 100	500 to 1000
COCCOc1ccc(Nc2ncc3c(n2)CN(c2cnc4c(c2C)NCCO4)CC3)cc1 [Example 98, N-(4-(2-methoxyethoxy)phenyl)-7-(8-methyl-2,3-dihydro-1H-pyrido[2,3-b][1,4]oxazin-7-yl)-5,6,7,8-tetrahydropyrido[3,4-d]pyrimidin-2-amine]	500 to 1000	< 100	–
Cc1c(N2CCc3cnc(Nc4ccc(CN5CCOCC5)cc4)nc3C2)cnc2c1NCCO2 [Example 99, 7-(8-methyl-2,3-dihydro-1H-pyrido[2,3-b][1,4]oxazin-7-yl)-N-(4-(morpholinomethyl)phenyl)-5,6,7,8-tetrahydropyrido[3,4-d]pyrimidin-2-amine]	500 to 1000	< 100	–
Cc1c(N2CCc3cnc(Nc4ccc(C5CCN(C)CC5)cc4)nc3C2)cnc2c1NCCO2 [Example 100, 7-(8-methyl-2,3-dihydro-1H-pyrido[2,3-b][1,4]oxazin-7-yl)-N-(4-(1-methylpiperidin-4-yl)phenyl)-5,6,7,8-tetrahydropyrido[3,4-d]pyrimidin-2-amine]	500 to 1000	< 100	–
Cc1c(N2CCc3cnc(Nc4ccc(N5CCC(O)CC5)nc4)nc3C2)cnc2c1NCCO2 [Example 102, 1-(5-((7-(8-methyl-2,3-dihydro-1H-pyrido[2,3-b][1,4]oxazin-7-yl)-5,6,7,8-tetrahydropyrido[3,4-d]pyrimidin-2-yl)amino)pyridin-2-yl)piperidin-4-ol]	–	< 100	> 1000
Cc1c(N2CCc3cnc(Nc4ccc(N5CCC(OC(F)(F)F)CC5)cc4)nc3C2)cnc2c1NCCO2 [Example 103, 7-(8-methyl-2,3-dihydro-1H-pyrido[2,3-b][1,4]oxazin-7-yl)-N-(4-(4-(trifluoromethoxy)piperidin-1-yl)phenyl)-5,6,7,8-tetrahydropyrido[3,4-d]pyrimidin-2-amine]	–	< 100	> 1000
Cc1c(N2CCc3cnc(Nc4ccc5c(c4)CN(C)C5)nc3C2)cnc2c1NCCO2 [Example 104, 7-(8-methyl-2,3-dihydro-1H-pyrido[2,3-b][1,4]oxazin-7-yl)-N-(2-methylisoindolin-5-yl)-5,6,7,8-tetrahydropyrido[3,4-d]pyrimidin-2-amine]	< 500	< 100	–
Cc1c(N2CCc3cnc(Nc4cnc5c(c4)CN(CC(F)F)CC5)nc3C2)cnc2c1NCCO2 [Example 105, N-(6-(2,2-difluoroethyl)-5,6,7,8-tetrahydro-1,6-naphthyridin-3-yl)-7-(8-methyl-2,3-dihydro-1H-pyrido[2,3-b][1,4]oxazin-7-yl)-5,6,7,8-tetrahydropyrido[3,4-d]pyrimidin-2-amine]	500 to 1000	< 100	–
Cc1c(N2CCc3cnc(Nc4cnc5c(c4)CN(CC(F)(F)F)CC5)nc3C2)cnc2c1NCCO2 [Example 106, 7-(8-methyl-2,3-dihydro-1H-pyrido[2,3-b][1,4]oxazin-7-yl)-N-(6-(2,2,2-trifluoroethyl)-5,6,7,8-tetrahydro-1,6-naphthyridin-3-yl)-5,6,7,8-tetrahydropyrido[3,4-d]pyrimidin-2-amine]	> 1000	< 100	–
Cc1c(N2CCc3cnc(Nc4ccc(C5CCN(C)CC5)c(CO)c4)nc3C2)cnc2c1NCCO2 [Example 107, (5-((7-(8-methyl-2,3-dihydro-1H-pyrido[2,3-b][1,4]oxazin-7-yl)-5,6,7,8-tetrahydropyrido[3,4-d]pyrimidin-2-yl)amino)-2-(1-methylpiperidin-4-yl)phenyl)methanol]	500 to 1000	< 100	–
Cc1c(N2CCc3cnc(Nc4cnc5c(c4)CNCC5)nc3C2)cnc2c1NCCO2 [Example 108, 7-(8-methyl-2,3-dihydro-1H-pyrido[2,3-b][1,4]oxazin-7-yl)-N-(5,6,7,8-tetrahydro-1,6-naphthyridin-3-yl)-5,6,7,8-tetrahydropyrido[3,4-d]pyrimidin-2-amine]	500 to 1000	< 100	–
Cc1c(N2CCc3cnc(Nc4cnc5c(c4)CN(C)CC5)cc3C2)cnc2c1NCCO2 [Example 109, 6-methyl-N-(6-(8-methyl-2,3-dihydro-1H-pyrido[2,3-b][1,4]oxazin-7-yl)-5,6,7,8-tetrahydro-2,6-naphthyridin-3-yl)-5,6,7,8-tetrahydro-1,6-naphthyridin-3-amine]	> 1000	100 to 1000	–
Cc1c(N2CCc3cnc(Nc4cnc5c(c4)CC(O)CC5)nc3C2)cnc2c1NCCO2 (stereo not drawn) [Example 110, 3-((7-(8-methyl-2,3-dihydro-1H-pyrido[2,3-b][1,4]oxazin-7-yl)-5,6,7,8-tetrahydropyrido[3,4-d]pyrimidin-2-yl)amino)-5,6,7,8-tetrahydroquinolin-6-ol]	500 to 1000	< 100	–
Cc1c(N2CCc3cnc(Nc4ccc(N5CCC(O)CC5)cc4)nc3C2)cnc2c1NCCO2 [Example 111, 1-(4-((7-(8-methyl-2,3-dihydro-1H-pyrido[2,3-b][1,4]oxazin-7-yl)-5,6,7,8-tetrahydropyrido[3,4-d]pyrimidin-2-yl)amino)phenyl)piperidin-4-ol]	500 to 1000	< 100	–
Cc1c(N2CCc3cnc(Nc4ccc(C5CCN(C)CC5)c(CC#N)c4)nc3C2)cnc2c1NCCO2 [Example 112, 2-(5-((7-(8-methyl-2,3-dihydro-1H-pyrido[2,3-b][1,4]oxazin-7-yl)-5,6,7,8-tetrahydropyrido[3,4-d]pyrimidin-2-yl)amino)-2-(1-methylpiperidin-4-yl)phenyl)acetonitrile]	500 to 1000	< 100	–
COC1CCN(c2ccc(Nc3ncc4c(n3)CN(c3cnc5c(c3C)NCCO5)CC4)cc2)CC1 [Example 113, N-(4-(4-methoxypiperidin-1-yl)phenyl)-7-(8-methyl-2,3-dihydro-1H-pyrido[2,3-b][1,4]oxazin-7-yl)-5,6,7,8-tetrahydropyrido[3,4-d]pyrimidin-2-amine]	500 to 1000	< 100	–

From patent US20240025922A1, “TETRAHYDROPYRIDO[3,4-d]PYRIMIDINES AS HPK1 INHIBITORS” (Merck Patent GmbH, priority 2022, published 2024)
